≈ marks a conversion by molar mass, not a printed value.
Assays:
Type in all cases: functional
Lipid bilayer [1] = experiment: Induction of membrane lysis in Staphylococcus aureus UL12 lipid vesicles assessed as calcein release at 93.73 uM by spectrofluorometric analysis
Lipid bilayer [2] = experiment: Induction of membrane lysis in Staphylococcus aureus UL12 lipid vesicles assessed as calcein release at 750 uM by spectrofluorometric analysis
Lipid bilayer [3] = experiment: Induction of membrane lysis in Escherichia coli W3110 lipid vesicles assessed as calcein release at 93.73 uM by spectrofluorometric analysis
Lipid bilayer [4] = experiment: Induction of membrane lysis in Escherichia coli W3110 lipid vesicles assessed as calcein release at 750 uM by spectrofluorometric analysis
Escherichia coli [5] = experiment: Antibacterial activity against Escherichia coli W3110
Lipid bilayer [6] = experiment: Induction of membrane lysis in Escherichia coli W3110 lipid vesicles assessed as calcein release at 375 uM by spectrofluorometric analysis
Lipid bilayer [7] = experiment: Induction of membrane lysis in Escherichia coli W3110 lipid vesicles assessed as calcein release at 187.5 uM by spectrofluorometric analysis
Lipid bilayer [8] = experiment: Induction of membrane lysis in Staphylococcus aureus UL12 lipid vesicles assessed as calcein release at 375 uM by spectrofluorometric analysis
Staphylococcus aureus [9] = experiment: Antibacterial activity against Staphylococcus aureus UL12
Lipid bilayer [10] = experiment: Induction of membrane lysis in Staphylococcus aureus UL12 lipid vesicles assessed as calcein release at 187.5 uM by spectrofluorometric analysis
Escherichia coli [11] = experiment: Membrane permeabilisation in Escherichia coli W3110 assessed as NPN uptake at 2mM incubated for 1 hr by spectrofluorometric analysis
Staphylococcus aureus [12] = experiment: Membrane permeabilisation in Staphylococcus aureus UL12 assessed as NPN uptake at 2mM incubated for 1 hr by spectrofluorometric analysis
Lipid bilayer [13] = experiment: Induction of membrane lysis in Escherichia coli W3110 lipid vesicles assessed as calcein release at 1500 uM by spectrofluorometric analysis
Staphylococcus aureus [14] = experiment: Membrane permeabilisation in Staphylococcus aureus UL12 assessed as NPN uptake at 2mM incubated overnight by spectrofluorometric analysis
Lipid bilayer [15] = experiment: Induction of membrane lysis in Staphylococcus aureus UL12 lipid vesicles assessed as calcein release at 3000 uM by spectrofluorometric analysis
Escherichia coli [16] = experiment: Membrane permeabilisation in Escherichia coli W3110 assessed as NPN uptake at 2mM incubated overnight by spectrofluorometric analysis
Lipid bilayer [17] = experiment: Induction of membrane lysis in Escherichia coli W3110 lipid vesicles assessed as calcein release at 3000 uM by spectrofluorometric analysis
Lipid bilayer [18] = experiment: Induction of membrane lysis in Staphylococcus aureus UL12 lipid vesicles assessed as calcein release at 1500 uM by spectrofluorometric analysis

Row | Compound | Activity (Lipid bilayer [1]) [%] | Activity (Lipid bilayer [2]) [%] | Activity (Lipid bilayer [3]) [%] | Activity (Lipid bilayer [4]) [%] | MIC (Escherichia coli [5]) [µM] | Activity (Lipid bilayer [6]) [%] | Activity (Lipid bilayer [7]) [%] | Activity (Lipid bilayer [8]) [%] | MIC (Staphylococcus aureus [9]) [µM] | Activity (Lipid bilayer [10]) [%] | Activity (Escherichia coli [11]) [%] | Activity (Staphylococcus aureus [12]) [%] | Activity (Lipid bilayer [13]) [%] | Activity (Staphylococcus aureus [14]) [%] | Activity (Lipid bilayer [15]) [%] | Activity (Escherichia coli [16]) [%] | Activity (Lipid bilayer [17]) [%] | Activity (Lipid bilayer [18]) [%]
1 | NCC(=O)Nc1cccc(NC(=O)Nc2ccccc2)c1 | 6.91 | 27.2 | 1.1 | 16.6 | 2000 (≈ 569 µg/mL) | 9.17 | 6.06 | 17.8 | 1500 (≈ 426 µg/mL) | 11.2 | 47.09 | 69.56 | 23.5 | 69.56 | 44.1 | 50.93 | 29.2 | 31.2
2 | Nc1cccc(NC(=O)Nc2ccccc2)c1 | 4.58 | 12.7 | 0.15 | 1.73 | > 3000 | 1.24 | 0.95 | 10.1 | 2500 (≈ 568 µg/mL) | 8.34 | 33.93 | 38.91 | 1.78 | 19.29 | 15.5 | 16.34 | 2.17 | 13.8
3 | CN(C(=O)N(C)c1cccc(N)c1)c1ccccc1 | 4.45 | 15.3 | 2.3 | 7.44 | > 3000 | 6.75 | 5.72 | 12 | 2000 (≈ 511 µg/mL) | 7.13 | 40.18 | 46.26 | 8.03 | 53.57 | 27 | 48.79 | 9.65 | 21.2
4 | CN(C(=O)N(C)c1ccccc1)c1ccccc1 | 2.59 | 14.2 | 0.82 | 6.44 | > 3000 | 4.25 | 2.05 | 12.8 | 2500 (≈ 601 µg/mL) | 5.71 | 40.75 | 43.82 | 7.28 | 44.34 | 24.1 | 38.67 | 9.02 | 15.1
5 | CN(C(=O)N(C)c1cccc(NC(=O)CN)c1)c1ccccc1 | 4.45 | 13.2 | 8.45 | 30 | 2000 (≈ 625 µg/mL) | 29.3 | 27.2 | 11.8 | 2500 (≈ 781 µg/mL) | 10 | 42.47 | 40.6 | 31 | 36.81 | 17.8 | 52.87 | 35.5 | 15.3
6 | CN(C(=O)N(C)c1cccc(NC(=O)c2ccncc2)c1)c1ccccc1 | 40 | 51.5 | 24.1 | 29.1 | 2000 (≈ 721 µg/mL) | 26.3 | 24.8 | 49.6 | 1000 (≈ 360 µg/mL) | 48.2 | 49.57 | 50.59 | 33.6 | 57.33 | 54.6 | 52.34 | 35.3 | 53.1
7 | O=C(Nc1ccccc1)Nc1ccccc1 [DIPHENYLUREA] | 7.18 | 15.3 | 3.17 | 8.53 | > 3000 | 6.47 | 6.27 | 13.8 | 2000 (≈ 425 µg/mL) | 9.2 | 45.29 | 46.01 | 12 | 49.4 | 25.5 | 30.02 | 14.8 | 18.3

Reference: ChEMBL document CHEMBL3826887, “Functional foldamers that target bacterial membranes: The effect of charge, amphiphilicity and conformation” (2016)
